Literature values, collected in US20070093743A1, “Iontophoresis Drug Delivery Device Providing Acceptable Depth and Duration of Dermal Anesthesia” (Vyteris, Inc., priority 2005, published 2007).

Details: iontophoresis in vitro across human skin

Row | cumulative delivery compared with lidocaine | SMILES
1 | slightly greater delivery | CCN(CC)CCOC(=O)c1ccc(N)cc1 [procaine]
2 | slightly greater delivery | CCCNC(C)C(=O)Nc1ccccc1C (stereo not drawn) [prilocaine]
3 | slightly greater delivery | CCCN(CC)C(CC)C(=O)Nc1c(C)cccc1C (stereo not drawn) [etidocaine]
